Data taken from a melting point compilation (Tetko et al.; mined from patent text by program, amines drawn as free bases though some values may be those of a salt).

melting point [°C]	SMILES
> 280	COC(=O)c1c(Br)cc(Br)cc1NC(=O)NCc1ccccc1
146 to 151	CC1(NC(=O)C(F)(F)F)CN(c2cc3c(cc2F)c(=O)c(C(=O)O)cn3-c2ccc(F)cc2)C1
102 to 107	Nc1ccc(C(CC2CCCC2)C(=O)Nc2nccs2)cc1 (stereo unspecified)
273 to 274	Nc1cc(C(=O)O)cc(S(N)(=O)=O)c1Nc1ccc(Cl)cc1
98 to 102	Oc1cc2ccccc2c(Br)c1O
170 to 171	COc1ccc(-c2nc(S(=O)c3ccncc3)[nH]c2-c2ccc(OC)cc2)cc1 (stereo unspecified)
138 to 139	CN(C)CC1CCc2cc(NC(=O)c3ccc(-c4ccc(CO)cc4)cc3)ccc2C1 (stereo unspecified)
224 to 226	Cn1c(-c2ccc3ccccc3c2)nnc1S(C)=O (stereo unspecified)
65	CCOC(=O)c1cnc(N(C)C)nc1
220 to 221	CC(c1ccc(Oc2ccc(N)cc2)cc1)(c1ccc(Oc2ccc(N)cc2)cc1)c1ccc(Oc2ccc(N)cc2)cc1
198	CC(C)(Oc1ccc(CC(=O)Nc2ccc(F)cc2)cc1)C(=O)O
176 to 178	COc1ccc(S(=O)(=O)c2ccccc2)cc1S(=O)(=O)NC1CCOCC1
104 to 106	CCCN(CCC)C(=O)Cc1c(-c2ccc(Cl)cc2)nn2cccnc12
> 300	O=C(O)Cc1c[nH]c2cc(C3CC3)nn2c1=O
183 to 184	N#Cc1n[nH]cc1-c1ccc(Cl)cc1C(=O)c1ccccc1Cl
68.3	CN(C)c1cccc2c1OC1(CC1)C2=O
242 to 243	CCc1nc2c(N)nc3cc(OCCCOc4ccc5c(c4)nc(N)c4nc(CC)sc45)ccc3c2s1
164 to 167	Oc1ccc2c(c1)OCC(c1ccc(F)cc1)C2c1ccc(OCCN2CCCC2)cc1 (stereo unspecified)
212	COC(=O)c1ccc(C(=O)c2ccc(NC(C)=O)cc2)cc1
138	O=C(O)CC/C=C/CC(NC(=O)c1ccccc1)C(=O)O (stereo unspecified)
288 to 292	Cn1cc(C(N)=O)c(=O)c2ccc(C(F)(F)F)cc21
186 to 187	CC(=O)N[C@H](Cc1ccc(C(=O)c2ccccc2)cc1)C(=O)O

The remaining lines, values behind:

SMILES	melting point [°C]
CSc1ccc(O)cn1	133
CC(C)(C)c1ccc(Oc2nc(Nc3cccc(CO)c3)nc(Oc3ccccc3)n2)cc1	47 to 50
Nc1nc2ccccc2c2c1nc1n2C(COc2ccccc2)COC1 (stereo unspecified)	189 to 195
N#Cc1c(OCC(F)(F)F)nc(N)nc1N1CCc2ccccc2CC1	145 to 147
CCOC(=O)c1ncn2c1CN=C(c1ccccc1)c1cc(C#CC(C)(C)C)ccc1-2	155 to 156
O=C1CN=C(c2ccccc2F)c2cc(Cl)ccc2N1	206 to 207
CC(C)Oc1cc(/C=C/C(=O)O)n(Cc2ncc(C(F)(F)F)cc2Cl)n1	130 to 132
CCN(CC)c1ccc(C(c2ccc(N(C)C)cc2)c2ccc(N(C)C)cc2)c(O)c1	94 to 95
O=[N+]([O-])c1ccc(Cl)cc1NC1CCCC1	75
COC(=O)CC(=O)C=Cc1ccccc1	83
COc1ccc(-c2c(C(=O)O)c3ccccc3n2C)cc1	229 to 230
COc1ccc(OCC(O)CN2CCC(c3noc4cc(F)ccc34)CC2)cc1 (stereo unspecified)	134 to 135
CCNc1nc(SC)ncc1CNc1cc(OC)cc(OC)c1	100 to 105
COc1cc2c3ccc(OC)c(OC)c3n(S(=O)(=O)c3ccc([N+](=O)[O-])cc3)c2cc1OC	188 to 189
O=C(Nc1ccccc1)O[C@H]1COC(c2cc3ccccc3[nH]2)=N[C@@H]1c1ccccc1 (racemic)	166
Cc1cc(C)c(N2CCCCC2=O)c(Cl)c1	108 to 109
c1cc2c(cc1N1CCNCC1)OCCO2	138
NC1SC=CN1Sc1ccc(F)cc1F (stereo unspecified)	116 to 117
CNC(=O)ON=C1SC(C)C(=O)NC1(C)C (stereo unspecified)	190 to 191
